Earlier results in patent US20150110862A1, “Sweet Gum Fruit Extract as a Therapeutic Agent” (Board of Supervisors of Louisiana State University and …, priority 2007, published 2015).
Values after ≈ are worked out from the molar mass of the structure shown.

Legend:
[1] = test system: 39 human cancer cell lines; conditions: literature
two-stage carcinogenesis = conditions: literature
[2] = test system: UVB-radiation-induced photocarcinogenesis; conditions: oral administration, literature
[3] = test system: human prostate cancer PC3 cells; conditions: published articles

Row | SMILES | cytotoxicity against 39 human cancer cell lines [1] | anti-tumor activity, two-stage carcinogenesis assay (two-stage carcinogenesis) | tumor incidence and tumor multiplicity vs control group [2] | IC50 against human prostate cancer PC3 cells (reported) [3] [µg/mL]
1 | CC1(C)CCC2(C(=O)O)CCC3(C)C(=CC(=O)C4C5(C)CCC(=O)C(C)(C)C5CCC43C)C2C1 (centres unmarked) [3,11-dioxoolean-12-en-28-oic acid] | weaker activity | – | – | –
2 | CC1(C)CCC2(C(=O)O)CCC3(C)C(=CCC4C5(CO)CCC(O)C(C)(C)C5CCC43C)C2C1 (stereo not drawn) [3α,25-dihydroxyolean-12-en-28-oic acid] | weaker activity | – | – | –
3 | C=C(C)C1CCC2(C(=O)O)CCC3(C)C(CCC4C56CCC(O)(OC5)C(C)(C)C6CCC43C)C12 (stereo not drawn) [3β,25-epoxy-3α-hydroxylup-20(29)-en-28-oic acid] | – | moderate inhibitory activities | approximate halving of the tumor incidence and tumor multiplicity | –
4 | C=C(C)[C@@H]1CC[C@]2(C(=O)O)CC[C@]3(C)[C@@H](CC[C@@H]4[C@@]5(C)CCC(=O)C(C)(C)[C@@H]5[C@H](O)C[C@]43C)[C@@H]12 [6β-hydroxy-3-oxolup-20 (29)-en-28-oic acid] | weaker activity | – | – | –
5 | CC(=O)OC[C@]12CC[C@@H](O)C(C)(C)[C@@H]1CC[C@]1(C)[C@@H]2CC=C2[C@@H]3CC(C)(C)CC[C@]3(C(=O)O)CC[C@]21C [Terpenoid 1, 25-acetoxy-3α-hydroxyolean-12-en-28-oic acid] | strong cytotoxicity | moderate inhibitory activities | – | 5.9 (≈ 11.5 µM)
